Data published in US11236122B2, “Triterpene amine derivatives” (DFH THERAPEUTICS, priority 2018, dated 2022).
Structures can show the parent of a compound that is named as a salt.

Legend:
[1] = Cytotoxicity assay CellTitre-Blue, HEK-293T; type: cell-based; settings: human, HEK-293T cells, read-out: Cytotoxicity CC50 HEK293T
Procedure: (§1) Cytotoxicity assays. Cytotoxicity assays were performed using the CellTitre-Blue Cell Viability Assay kit (Promega, USA) as per manufacturer's recommendations. HEK-293T and HUT-R5 cell lines were maintained in the presence of serial dilutions of the compounds for 4 days and treated with CellTitre-Blue reagent for 4 h at 37° C. The fluorescent signals were recorded at 530/25excision and 590/35emission using BioTek microplate reader. The 50% cytotoxicity concentrations (CC50s) were determined as the compound concentrations that reduced the fluorescent signals to 50% relative to DMSO only controls.

WT pNL4-3 = test: CA-SP1 accumulation assay, WT NL4-3; type: cell-based, HIV-1; settings: HeLa or 293T cells; for % CA-SP1 Accumulation 10 nM NL4-3: 10 nM compound
Summary of the method: (§2)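 HeLa or 293T cells transfected with proviral clone, maturation inhibitors present through transfection and labeling; at 24 h, [^35S]Met/Cys labeling 2-3 h. Virions pelleted by ultracentrifugation, lysed, CA and CA-SP1 resolved by SDS-PAGE and quantified by phosphorimaging.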

pNL4-3 SP1-V7A = test: CA-SP1 accumulation assay, SP1-V7A derivative; type: cell-based, HIV-1; settings: HeLa or 293T cells; for % CA-SP1 Accumulation 10 nM SP1 V7A: 10 nM compound
Summary of the method: as §2

HIV-1 clade C K3016 [2] = test: CA-SP1 accumulation assay (immunoblot), clade C K3016; type: cell-based
Procedure: (§3) Compound evaluation was performed against a panel of HIV-1 Clade C isolates K3016, pindieC1, and ZM247. The three isolates all contain the SP1-A7V. Clade B NL4-3 was included as the […] control.
(§4) Plasmids, tissue culture and transfections. HIV-1 clade B molecular clone NL4-3 and cade C clones K3016, ZM247 were obtained from Dr. Christina Ochsenbauer, University of Alabama, USA. Both K3016 and ZM247 were constructed using viral strains from South Africa. The HIV-1 clade C molecular clone pindieC1 was obtained from Dr. Uday Ranga, JNCASR, India. This clone was constructed using an HIV strain from India. HEK-293T and TZM-bl cells were propagated in Dulbecco's modified Eagle's medium (DM4EM) containing 10% fetal bovine serum (FBS). HUT-R5 cells were propagated in RPM 1640 medium supplemented with 10% FBS. For transfections, HEK-293T cells were grown in six well plates to about 80% confluency. Cells were transfected using Lipofectamine 2000 (invitrogen, USA) following manufacturer's recommendations. For viral replication assays, HUT-R5 T-cells were transfected using DEAE dextran as described in Waheed, A. A., Ono, A., and Freed, E. O.; Methods for the study of HIV-1 assembly; Methods Mol. Biol. Clifton N.J. 485, 163-184 (2009).
(§5) Preparation of viral stocks. Virus stocks were prepared by transfecting HEK-293T cells with HIV-1 DNAs (3 μg). 24 h post-transfection, the culture medium was replaced with fresh DMEM and incubated for another 2 h. Compounds tested were maintained in the culture throughout transfection. The culture supernatant was centrifuged at 845×g for 3 min to remove cellular debris. The clarified supernatants were filtered (pore size 0.45 µm filter disc) to remove residual cellular contaminants. For determination of viral infectivity, the un-concentrated virus was used to infect TZM-bl cells. For the CA-SP1 accumulation assay, the virus was pelleted by ultra-centrifugation at 210,100×g for 1 h at 4° C. using SW41Ti rotor (Beckman Coulter, USA).
(§6) CA-SP1 accumulation assay. To measure accumulation of CA-SP1, immunoblot analysis of virus-associated proteins was performed. The virus pellet was resuspended in radioimmunoprecipitation assay (RIPA) buffer (50 mM Tris-HCl pH 8.0, 150 mM sodium chloride, 1.0% NP-40, 0.5% sodium deoxycholate, 0.1% SDS) containing 1×protease inhibitor cocktail (Roche, Germany). The viral lysates were subjected to SDS-polyacrylamide gel electrophoresis (15% gel). Proteins were transferred to polyvinylidene difluoride membranes and reacted with HIV-IgG obtained from the NIH AIDS Reagent Program (catalog no. 3957) followed by incubation with HRP-conjugated anti-human secondary antibodies (GE Healthcare, UK). The proteins were visualized by enhanced chemiluminescence (Pierce, USA) and the bands were quantified using ImageJ software (http://imagej.nih.gov/ij/).

HIV-1 clade C pindieC1 = test: CA-SP1 accumulation assay (immunoblot), clade C pindieC1; type: cell-based; settings: head prints K3016
Procedure: as §3, §4, §5, §6

HIV-1 clade C K3016 [3] = test: Viral infectivity assay in TZM-bl cells (luciferase), K3016; type: cell-based; settings: DMSO = 100
From the text: as §4, §5
(§7) Viral infectivity assays. The virus stocks were normalized for p24 antigen using an HIV-1 p24 Antigen Capture kit (ABL, USA). Equal amounts of virus were used to infect TZM-bl cells (5×10^4/well) in the presence of 20 μg DEAE-dextran per mL in 24 well plate. Single-round infectivity assays were performed as previously described in Checkley, M. A. et al; Reevaluation of the Requirement for TIP47 in Human Immunodeficiency Virus Type 1 Envelope Glycoprotein Incorporation; J. Virol. 87, 3561-3570 (2013). The luciferase activity in the cell lysates was measured using the Steady-Glo luciferase assay kit (Promega, USA) following manufacturer's recommendations.

[4] = Cytotoxicity assay CellTitre-Blue, HUT-R5; type: cell-based; settings: human, HUT-R5 cells, read-out: Cytotoxicity CC50 HUTR5
Procedure: as §1

HIV-1 clade B NL4-3 = test: Viral infectivity assay in TZM-bl cells (luciferase), NL4-3; type: cell-based; settings: DMSO = 100
From the text: as §4, §5, §7

| Structure (SMILES) | CC50 at 4 days [1] [nM] | % CA-SP1 Accumulation 10 nM NL4-3 (WT pNL4-3) | % CA-SP1 Accumulation 10 nM SP1 V7A (pNL4-3 SP1-V7A) | % CA-SP1 Accumulation K3016 10 nM (HIV-1 clade C K3016 [2]) [%] | % CA-SP1 Accumulation K3016 100 nM (HIV-1 clade C K3016 [2]) [%] | % CA-SP1 Accumulation K3016 10 nM (HIV-1 clade C pindieC1) [%] | % CA-SP1 Accumulation K3016 100 nM (HIV-1 clade C pindieC1) [%] | % Relative Infectivity K3016 10 nM (HIV-1 clade C K3016 [3]) [%] | % Relative Infectivity K3016 100 nM (HIV-1 clade C K3016 [3]) [%] | CC50 at 4 days [4] [nM] | % Relative Infectivity NL4-3 10 nM (HIV-1 clade B NL4-3) [%] | % Relative Infectivity NL4-3 100 nM (HIV-1 clade B NL4-3) [%] | % CA-SP1 Accumulation 100 nM NL4-3 (WT pNL4-3; 100 nM compound) | % CA-SP1 Accumulation 100 nM SP1 V7A (pNL4-3 SP1-V7A; 100 nM compound) |
| --- | --- | --- | --- | --- | --- | --- | --- | --- | --- | --- | --- | --- | --- | --- |
| C=C(C)[C@@H]1CC[C@]2(CCNCCN3CCN(S(C)(=O)=O)CC3)CC[C@]3(C)[C@H](CC[C@@H]4[C@@]5(C)CC[C@H](OC(=O)CC(C)(C)C(=O)O)C(C)(C)[C@@H]5CC[C@]43C)[C@@H]12 [Compound 51ff, (3β)-17-[2-[[2-[4-(Methylsulfonyl)piperazin-1-yl]ethyl]amino]ethyl]-28-norlup-20(29)-en-3-ol, 3-(1-Hydrogen 2,2-Dimethylbutanedioate)] | > 100 | 72.7 (3) % | 31.1 (3) % | 49.8 | 54.4 | 36.7 | 39.1 | 43.3 | 24.4 | > 500 | 20.1 | 2.9 | – | – |
| C=C(C)[C@@H]1CC[C@]2(CCNC3CCN(CCO)CC3)CC[C@]3(C)[C@H](CC[C@@H]4[C@@]5(C)CC[C@H](OC(=O)CC(C)(C)CC(=O)O)C(C)(C)[C@@H]5CC[C@]43C)[C@@H]12 [Compound 51f, (3β)-17-[2-[[1-(2-Hydroxyethyl)piperidin-4-yl]amino]ethyl]-28-norlup-20(29)-en-3-ol, 3-(Hydrogen 3,3-Dimethylpentanedioate), Bis(trifluoroacetate) Salt] | – | – | – | – | – | – | – | – | – | – | – | – | 79.7 (3) % | 43.4 (3) % |
| C=C(C)[C@@H]1CC[C@]2(CCNCCN3CCN(Cc4ccccc4)CC3)CC[C@]3(C)[C@H](CC[C@@H]4[C@@]5(C)CC[C@H](OC(=O)CC(C)(C)C(=O)O)C(C)(C)[C@@H]5CC[C@]43C)[C@@H]12 [Compound 51hh, (3β)-17-[2-[[2-[4-(Phenylmethyl)piperazin-1-yl]ethyl]amino]ethyl]-28-norlup-20(29)-en-3-ol, 3-(1-Hydrogen 2,2-Dimethylbutanedioate)] | > 100 | 66.4 (3) % | 42.1 (5) % | 35.8 | 62.9 | 26.7 | 43.8 | 48.6 | 32.3 | > 500 | 41.4 | 3.3 | – | – |
| C=C(C)[C@@H]1CC[C@]2(CCNCCN3CCS(=O)(=O)CC3)CC[C@]3(C)[C@H](CC[C@@H]4[C@@]5(C)CC[C@H](OC(=O)CC(C)(C)C(=O)O)C(C)(C)[C@@H]5CC[C@]43C)[C@@H]12 [Compound 51ee, (3β)-17-[[[2-[2-(1,1-Dioxothiomorpholin-4-yl)]Ethyl]Amino]Ethyl]-28-norlup-20(29)-en-3-ol, 3-(1-Hydrogen 2,2-Dimethylbutanedioate)] | > 100 | 73.5% | 35.1% | 53.8 | 66.4 | 41.8 | 48.3 | 32.0 | 7.8 | > 500 | 15.4 | 4.4 | – | – |
